Assay results as given in patent publication US11401246B2, “Triazole glycolate oxidase inhibitors” (CANTERO THERAPEUTICS, INC., priority 2018, dated 2022).
Read-outs that look alike come from different tables or passages of the source.

Biological target: T1, human glycolate oxidase (hGO) (Homo sapiens, UniProt Q9UJM8)
T1 construct: His-tag (6 histidines, pET-15b) (N); made in house; host or cells: E. coli BL21 (DE3)
T1 sequence (Q9UJM8 1-370): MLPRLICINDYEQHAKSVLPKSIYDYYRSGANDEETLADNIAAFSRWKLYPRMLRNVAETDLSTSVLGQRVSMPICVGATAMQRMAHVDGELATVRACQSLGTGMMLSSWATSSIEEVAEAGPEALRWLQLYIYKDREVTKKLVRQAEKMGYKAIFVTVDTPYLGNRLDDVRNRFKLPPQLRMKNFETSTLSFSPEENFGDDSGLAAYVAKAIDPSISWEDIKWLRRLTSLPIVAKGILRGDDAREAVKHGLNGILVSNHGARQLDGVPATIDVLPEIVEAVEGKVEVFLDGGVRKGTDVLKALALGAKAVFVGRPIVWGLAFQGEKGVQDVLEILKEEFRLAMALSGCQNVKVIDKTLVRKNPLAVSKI
Assay: In vitro inhibition of human glycolate oxidase (enzymatic assay, HRP-coupled Trinder reaction);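 as to % Inhibition: values are IC50 potency bins despite the % Inhibition label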
Type: biochemical
Description: The catalytic reactions used for assaying glycolate oxidase activity in the presence of compounds according to the present disclosure are outlined in FIG. 2. Glycolate oxidase (GO)-catalyzed conversion of glycolate to glyoxylate (top reaction), with the concomitant reduction of the cofactor flavin mononucleotide (FMN), uses molecular oxygen (O2) for recovering its oxidative state, releasing hydrogen peroxide (H2O2). The Trinder reaction (bottom reaction), in which horseradish peroxidase (HRP) uses hydrogen peroxide, 4-aminoantipyrine and a phenol derivative (sulphonated DCIP) to generate a quinoneimine dye that is spectrophotometrically measured.
Human glycolate oxidase (hGO) expression. BL21 (DE3) E. coli transformed with recombinant pET-15b expression vector with the N-terminal His-tag human Hao1 cDNA was grown in LB medium in the presence of 0.1 mg/ml ampicillin. For purification of recombinant human glycolate oxidase (hGO) expressed in BL21 E. coli, bacteria pellets were thawed and re-suspended in 2 ml lysis buffer (50 mM NaH2PO4, 300 mM NaCl, 10 mM imidazole, 50 μM FMN, pH 7.5), and then treated for 30 minutes with 1 mM PMSF for protease inhibition, 0.1% Triton X-100 and 0.2 mg/ml lysozyme to break cellular membranes. After sonication, cells were centrifuged and the supernatant containing the total cellular extract (pre-column fraction) was loaded into a Ni-NTA agarose column and incubated for 30 minutes at 4° C. to allow binding of the 6 histidine tail of recombinant GO protein to the nickel ions. The column was washed with two bed volumes of lysis buffer with 20 mM imidazole to eliminate unbound proteins (wash fraction). GO was eluted using the same buffer with 300 mM imidazole. Fraction containing purified GO was dialyzed against 300 ml of dialysis buffer (50 mM NaH2PO4, 300 mM NaCl, pH 7.5) at 4° C. in agitation overnight, and then kept at 4° C. in darkness. Protein were quantified by the bicinchoninic acid (BCA) assay.
Enzymatic assays. Enzymatic activity of hGO was determined in the presence of glycolate as substrate (40 mM glycolic acid) and phosphate buffer (50 mM KPO4, 0.1 mM EDTA, pH 7). The production of glyoxylate was indirectly measured by the quantification of hydrogen peroxide formed during the first oxidation reaction. […] Enzymatic activity was calculated at 1 minute after initiation of the Trinder reaction.

[1] = recombinant hGO, 40 mM glycolic acid, pH 7, read at 515 nm, 1 minute after initiation of Trinder reaction, read-out: % Inhibition

Structure (SMILES) | IC50 [nM] | IC50 [1] [nM]
O=C(O)c1nn[nH]c1Oc1ccc(-c2ccccc2)cc1 [Example 42, 5-([1,1′-biphenyl]-4-yloxy)-1H-1,2,3-triazole-4-carboxylic Acid] | 100 to 200 | 
O=C(O)c1nn[nH]c1Oc1ccc(-c2cccc(OC(F)F)c2)nc1 [Example 44, 5-((6-(3-(difluoromethoxy)phenyl)pyridin-3-yl)oxy)-1H-1,2,3-triazole-4-carboxylic Acid] |  | 100 to 200
O=C(O)c1nn[nH]c1Sc1ccc(F)cc1 [Example 47, 5-((4-fluorophenyl)thio)-1H-1,2,3-triazole-4-carboxylic Acid] |  | 100 to 200
O=C(O)c1nn[nH]c1Sc1ccc(Br)cc1 [Example 52, 5-((4-bromophenyl)thio)-1H-1,2,3-triazole-4-carboxylic Acid] | 100 to 200 | 
N#Cc1ccc(-c2ccc(Oc3[nH]nnc3C(=O)O)cn2)cc1 [Example 55, 5-((6-(4-cyanophenyl)pyridin-3-yl)oxy)-1H-1,2,3-triazole-4-carboxylic Acid] |  | < 100
O=C(O)c1nn[nH]c1Oc1cccnc1F [Example 57, 5-((2-fluoropyridin-3-yl)oxy)-1H-1,2,3-triazole-4-carboxylic Acid] |  | > 200
Cc1ncc(-c2cccc(Oc3[nH]nnc3C(=O)O)c2)cn1 [Example 59, 5-(3-(2-methylpyrimidin-5-yl)phenoxy)-1H-1,2,3-triazole-4-carboxylic Acid] |  | < 100
O=C(O)c1nn[nH]c1Oc1cccc(-c2cccnc2F)c1 [Example 61, 5-(3-(2-fluoropyridin-3-yl)phenoxy)-1H-1,2,3-triazole-4-carboxylic Acid] |  | < 100
O=C(O)c1nn[nH]c1Sc1ccc(-c2cccnc2F)cc1 [Example 62, 5-((4-(2-fluoropyridin-3-yl)phenyl)thio)-1H-1,2,3-triazole-4-carboxylic Acid] |  | 100 to 200
NC(=O)c1ccc(-c2cccc(Oc3[nH]nnc3C(=O)O)c2)cc1 [Example 63, 5-((4′-carbamoyl-[1,1′-biphenyl]-3-yl)oxy)-1H-1,2,3-triazole-4-carboxylic Acid] |  | 100 to 200
N#Cc1ccc(-c2cccc(Oc3[nH]nnc3C(=O)O)c2)cc1 [Example 64, 5-((4′-cyano-[1,1′-biphenyl]-3-yl)oxy)-1H-1,2,3-triazole-4-carboxylic Acid] |  | 100 to 200
CN1CCN(c2ccc(Oc3[nH]nnc3C(=O)O)cc2)CC1 [Example 65, 5-(4-(4-methylpiperazin-1-yl)phenoxy)-1H-1,2,3-triazole-4-carboxylic Acid] |  | > 200
O=C(O)c1nn[nH]c1Oc1ccc(C2CCCC2)cc1 [Example 69, 5-(4-cyclopentylphenoxy)-1H-1,2,3-triazole-4-carboxylic Acid] | 100 to 200 | 
Cc1nc(F)ccc1-c1ccc(Oc2[nH]nnc2C(=O)O)cc1 [Example 73, 5-(4-(6-fluoro-2-methylpyridin-3-yl)phenoxy)-1H-1,2,3-triazole-4-carboxylic Acid] |  | < 100
Cc1cc(F)nc(-c2ccc(Oc3[nH]nnc3C(=O)O)cc2)c1 [Example 74, 5-(4-(6-fluoro-4-methylpyridin-2-yl)phenoxy)-1H-1,2,3-triazole-4-carboxylic Acid] |  | < 100
Cc1c(-c2ccc(Oc3[nH]nnc3C(=O)O)cc2)ccnc1F [Example 75, 5-(4-(2-fluoro-3-methylpyridin-4-yl)phenoxy)-1H-1,2,3-triazole-4-carboxylic Acid] |  | < 100
O=C1CCC(c2ccc(Oc3[nH]nnc3C(=O)O)cc2)CC1 [Example 77, 5-(4-(4-oxocyclohexyl)phenoxy)-1H-1,2,3-triazole-4-carboxylic Acid] |  | 100 to 200
Cc1ccc(-c2ccc(Oc3[nH]nnc3C(=O)O)cc2C)c(F)n1 [Example 78, 5-(4-(2-fluoro-6-methylpyridin-3-yl)-3-methylphenoxy)-1H-1,2,3-triazole-4-carboxylic Acid] |  | < 100
Cc1ccc(-c2ccc(Oc3[nH]nnc3C(=O)O)cc2)c(F)n1 [Example 79, 5-(4-(2-fluoro-6-methylpyridin-3-yl)phenoxy)-1H-1,2,3-triazole-4-carboxylic Acid] |  | < 100
Cc1cncc(-c2ccc(Oc3[nH]nnc3C(=O)O)cc2)c1 [Example 80, 5-(4-(5-methylpyridin-3-yl)phenoxy)-1H-1,2,3-triazole-4-carboxylic Acid] |  | < 100

More lines, now with the values ahead:

IC50 [nM] | IC50 [1] [nM] | Structure (SMILES)
 | 100 to 200 | Cc1ccc(Oc2[nH]nnc2C(=O)O)cc1 [Example 43, 5-(p-tolyloxy)-1H-1,2,3-triazole-4-carboxylic Acid]
> 200 |  | O=C(O)c1nn[nH]c1Oc1ccccc1 [Example 45, 5-phenoxy-1H-1,2,3-triazole-4-carboxylic Acid]
< 100 |  | COc1ccc(Oc2[nH]nnc2C(=O)O)cc1 [Example 46, 5-(4-methoxyphenoxy)-1H-1,2,3-triazole-4-carboxylic Acid]
 | < 100 | O=C(O)c1nn[nH]c1Oc1ccc(Br)c(Cl)c1 [Example 48, 5-(4-bromo-3-chlorophenoxy)-1H-1,2,3-triazole-4-carboxylic Acid]
 | < 100 | O=C(O)c1nn[nH]c1Oc1ccc(Cl)nc1 [Example 49, 5-((6-chloropyridin-3-yl)oxy)-1H-1,2,3-triazole-4-carboxylic Acid]
 | < 100 | O=C(O)c1nn[nH]c1Oc1ccc(Br)cc1F [Example 51, 5-(4-bromo-2-fluorophenoxy)-1H-1,2,3-triazole-4-carboxylic Acid]
 | < 100 | N#Cc1ccc(Oc2[nH]nnc2C(=O)O)cc1 [Example 53, 5-(4-cyanophenoxy)-1H-1,2,3-triazole-4-carboxylic Acid]
 | > 200 | Cc1ccc(Oc2[nH]nnc2C(=O)O)cn1 [Example 54, 5-((6-methylpyridin-3-yl)oxy)-1H-1,2,3-triazole-4-carboxylic Acid]
 | > 200 | NC(=O)c1ccc(Oc2[nH]nnc2C(=O)O)cc1 [Example 56, 5-(4-carbamoylphenoxy)-1H-1,2,3-triazole-4-carboxylic Acid]
 | < 100 | CN(C)c1cccc(Oc2[nH]nnc2C(=O)O)c1 [Example 58, 5-(3-(dimethylamino)phenoxy)-1H-1,2,3-triazole-4-carboxylic Acid]
 | < 100 | O=C(O)c1nn[nH]c1Oc1ccc(C(F)(F)F)cc1 [Example 60, 5-(4-(trifluoromethyl)phenoxy)-1H-1,2,3-triazole-4-carboxylic Acid]
 | > 200 | O=C(O)c1nn[nH]c1Oc1cccnc1Br [Example 66, 5-((2-bromopyridin-3-yl)oxy)-1H-1,2,3-triazole-4-carboxylic Acid]
 | > 200 | Cc1ccc(Oc2[nH]nnc2C(=O)O)c(C)n1 [Example 67, 5-((2,6-dimethylpyridin-3-yl)oxy)-1H-1,2,3-triazole-4-carboxylic Acid]
 | > 200 | CC(C)(C)c1ccc(Oc2[nH]nnc2C(=O)O)cc1 [Example 68, 5-(4-(tert-butyl)phenoxy)-1H-1,2,3-triazole-4-carboxylic Acid]
 | > 200 | COc1ccc(Oc2[nH]nnc2C(=O)O)cn1 [Example 70, 5-((6-methoxypyridin-3-yl)oxy)-1H-1,2,3-triazole-4-carboxylic Acid]
< 100 |  | Cc1cc(Oc2[nH]nnc2C(=O)O)ccc1Br [Example 71, 5-(4-bromo-3-methylphenoxy)-1H-1,2,3-triazole-4-carboxylic Acid]
 | < 100 | Cc1cc(Oc2[nH]nnc2C(=O)O)ccc1-c1cccnc1F [Example 72, 5-(4-(2-fluoropyridin-3-yl)-3-methylphenoxy)-1H-1,2,3-triazole-4-carboxylic Acid]
 | < 100 | O=C(O)c1nn[nH]c1Oc1ccc(C23CC(C2)C3)cc1 [Example 76, 5-(4-(3-bicyclo[1.1.1]pentan-1-yl)phenoxy)-1H-1,2,3-triazole-4-carboxylic Acid]
 | < 100 | Cc1cc(-c2ccc(Oc3[nH]nnc3C(=O)O)cc2)ccn1 [Example 81, 5-(4-(2-methylpyridin-4-yl)phenoxy)-1H-1,2,3-triazole-4-carboxylic Acid]
